From patent publication US20020165236A1, “Compounds for the treatment of protozoal diseases” (priority 2001, published 2002) come the findings set out here.

The test system of the assay is multiresistant Dd2 strain of Plasmodium falciparum. Briefly: antiplasmodial action, [8-3H]hypoxanthine incorporation, Dd2 strain. The following applies: read-out: in vitro antiplasmodial activity (IC50 value class). Type of assay: cell-based. As to the method:
For the determination of the antiplasmodial action of the compounds, the multiresistant Dd2 strain of Plasmodium falciparum was used. The incorporation of [8-^3H]hypoxanthine into the parasitic nucleic acids was measured. The plasmodia were incubated at 0.3% parasitaemia and an erythrocyte haematocrit of 2.5% in the presence of different concentrations of the compounds in a final volume of 200-μl. The medium employed was RPMI 1640 which contained 10% of heat-treated human serum and 3 mg/l of gentamycin. in the incubations, the concentrations of the compounds varied from 0.3 to 100 μM. After 48 h, each batch was treated with 50 µl of […] (1 mCi/ml) and incubated for a further 18 h. The cells were filtered off, washed and suspended in 20 μl of scintillation fluid. The radioactive hypoxanthine absorbed by the parasites was then quantified using a scintillation counter.
The results were presented graphically and the IC50 value was determined using a fitting function. The value IC50, the ‘inhibition constant’, indicates the value in μMol/1 at which 50% inhibition occurs.

As usually defined, the IC50 is the point on the concentration scale where inhibition reaches its midpoint.

Molecules are shown by their SMILES. Bounds are passed on as bounds.

Take `CSc1ccc(NC(=O)Nc2cccc(C(=N)NN)c2)cc1` [Compound 1]: the IC50 fell in the range of 1000 to 10000 nM. `N=C(N)c1ccc(NC(=O)Nc2cccc(C(F)(F)F)c2)cc1` [Compound 2]: the IC50 is 1000 to 10000 nM. Turning to `N=C(N)c1cccc(NC(=O)Nc2ccccc2Br)c1` [Compound 3], the IC50 was 1000 to 10000 nM. With `N#Cc1ccccc1NC(=O)Nc1cccc(C(=N)N)c1` [Compound 4], the IC50 was in the range of 1000 to 10000 nM. Turning to `CS(=O)(=O)c1ccc2nc(NC(=O)Nc3cccc(C(=N)N)c3)sc2c1` [Compound 6], the IC50 is 10000 to 100000 nM. On to `CSc1ccc(NC(=O)Nc2cccc(C(=N)N)c2)cc1` [Compound 7], for which the IC50 is 1000 to 10000 nM. Take `N=C(N)c1cccc(NC(=O)Nc2ccc(C(F)(F)F)cc2)c1` [Compound 8]: the IC50 was in the range of 1000 to 10000 nM.

Regarding `N=C(N)c1cccc(NC(=O)Nc2ccc(Cl)c(C(F)(F)F)c2)c1` [Compound 9], the IC50 is < 1000 nM. As for `N=C(N)c1cccc(NC(=O)Nc2ccc(C(F)(F)F)cc2Br)c1` [Compound 11], the IC50 lay in the range of 1000 to 10000 nM. Consider `COC(=O)c1cc(NC(=O)Nc2cccc(C(=N)N)c2)cc(C(F)(F)F)c1` [Compound 12], for which the IC50 lay in the range of 1000 to 10000 nM. Then `N=C(N)c1cccc(NC(=O)Nc2ccc(Br)cc2Br)c1` [Compound 14], with 1000 to 10000 nM. As to `COC(=O)c1cc(NC(=O)Nc2ccc(C(=N)N)cc2)cc(C(F)(F)F)c1` [Compound 16], the IC50 lay in the range of 1000 to 10000 nM. With `CN1C(=O)c2ccc(NC(=O)Nc3cccc(C(=N)N)c3)cc2C1=O` [Compound 17], the IC50 lay within 10000 to 100000 nM. Regarding `N=C(N)c1cccc(NC(=O)Nc2ccc(S(=O)(=O)N3CCc4ccccc4C3)cc2)c1` [Compound 20], the IC50 was 1000 to 10000 nM. `CCCCNS(=O)(=O)c1ccc(NC(=O)Nc2cccc(C(=N)N)c2)cc1` [Compound 21]: the IC50 lay in the range of 1000 to 10000 nM. Take `N=C(N)c1cccc(NC(=O)Nc2ccc(S(=O)(=O)NC3C4CC5CC(C4)CC3C5)cc2)c1` (stereo not shown) [Compound 22]: the IC50 was 10000 to 100000 nM. With `N=C(N)c1cccc(NC(=O)Nc2ccc(S(=O)(=O)NC(c3ccccc3)c3ccccc3)cc2)c1` [Compound 23, 3-{3-[4-(benzhydrylsulfamoyl)-phenyl]-ureido}-benzamidine], the IC50 was < 1000 nM. Consider `N=C(N)c1cccc(NC(=O)Nc2ccc(S(=O)(=O)Nc3ccccc3)cc2)c1` [Compound 26], for which the IC50 was in the range of 1000 to 10000 nM. The result for `N=C(N)c1cccc(NC(=O)Nc2ccc(S(=O)(=O)Nc3ccc(-c4ccc(N)cc4[N+](=O)[O-])cc3)cc2)c1` [Compound 27] reads 1000 to 10000 nM. For the compound `N=C(N)c1cccc(NC(=O)Nc2ccc(S(N)(=O)=O)cc2[N+](=O)[O-])c1` [Compound 28], the IC50 fell in the range of 1000 to 10000 nM. As for `N=C(N)c1cccc(NC(=O)Nc2ccc(S(=O)(=O)Nc3ccc4cccnc4c3)cc2)c1` [Compound 29], the IC50 lay within 1000 to 10000 nM. The result for `N=C(N)c1cccc(NC(=O)Nc2ccc(S(N)(=O)=O)cc2)c1` [Compound 30] reads 1000 to 10000 nM. Turning to `N=C(N)c1cccc(NC(=O)Nc2ccc(NS(=O)(=O)c3ccccc3)c(O)c2)c1` [Compound 31], the IC50 lay in the range of 1000 to 10000 nM. For `Cc1ccc(S(=O)(=O)Nc2cccc(NC(=O)Nc3cccc(C(=N)N)c3)c2)cc1` [Compound 32], the IC50 was in the range of 10000 to 100000 nM. Regarding `N=C(N)c1cccc(NC(=O)Nc2ccc(S(=O)(=O)NCc3ccccc3)cc2)c1` [Compound 33, 3-[3-(4-Benzylsulfamoyl-phenyl)-ureido]-benzamidine], the IC50 was < 1000 nM. With `N=C(N)c1cccc(NC(=O)Nc2ccc(S(=O)(=O)NCc3ccc(S(N)(=O)=O)cc3)cc2)c1` [Compound 35, 3-{3-[4-(4-sulfamoyl-benzylsulfamoyl)-phenyl]-ureido}-benzamidine], the IC50 was < 1000 nM. For `N=C(N)c1cccc(NC(=O)Nc2ccc(S(=O)(=O)NCc3cccc(F)c3)cc2)c1` [Compound 36], the IC50 is < 1000 nM. For the compound `N=C(N)c1cccc(NC(=O)Nc2ccc(S(=O)(=O)NCc3cccc(C(F)(F)F)c3)cc2)c1` [Compound 37, 3-{3-[4-(3-trifluoromethyl-benzylsulfamoyl)-phenyl]-ureido}-benzamidine], the IC50 was < 1000 nM. For `N=C(N)c1cccc(NC(=O)Nc2ccc(S(=O)(=O)NCc3ccc(C(F)(F)F)cc3)cc2)c1` [Compound 38], the IC50 is < 1000 nM.

Regarding `N=C(N)c1cccc(NC(=O)Nc2ccc(S(=O)(=O)NCc3ccc(F)cc3)cc2)c1` [Compound 39], the IC50 was < 1000 nM. Take `N=C(N)c1cccc(NC(=O)Nc2ccc(S(=O)(=O)NCc3ccccc3F)cc2)c1` [Compound 40]: the IC50 is < 1000 nM. As for `N=C(N)c1cccc(NC(=O)Nc2ccc(S(=O)(=O)NCc3cc(F)c(F)cc3F)cc2)c1` [Compound 41], the half-inhibitory concentration (IC50) lay in the range of 1000 to 10000 nM. As to `N=C(N)c1cccc(NC(=O)Nc2ccc(S(=O)(=O)NCc3cc(F)ccc3F)cc2)c1` [Compound 42], the IC50 was < 1000 nM.

Take `N=C(N)c1cccc(NC(=O)Nc2ccc(S(=O)(=O)NCc3ccc(F)cc3F)cc2)c1` [Compound 43]: the IC50 lay within 1000 to 10000 nM.

With `N=C(N)c1cccc(NC(=O)Nc2ccc(S(=O)(=O)NCc3ccc(F)c(F)c3)cc2)c1` [Compound 44], the IC50 is 1000 to 10000 nM. With `N=C(N)c1cccc(NC(=O)Nc2ccc(S(=O)(=O)NCc3c(F)cccc3F)cc2)c1` [Compound 45], the IC50 was < 1000 nM. On to `N=C(N)c1cccc(NC(=O)Nc2ccc(S(=O)(=O)NCc3cc(F)cc(C(F)(F)F)c3)cc2)c1` [Compound 46], for which the half-inhibitory concentration (IC50) lay in the range of 1000 to 10000 nM. As to `N=C(N)c1cccc(NC(=O)Nc2ccc(S(=O)(=O)NCc3c(F)ccc(F)c3F)cc2)c1` [Compound 47, 3-{3-[4-(2,3,6-trifluorobenzylsulfamoyl)-phenyl]-ureido}-benzamidine], the 50% inhibitory concentration (IC50) was < 1000 nM.

`CC(NS(=O)(=O)c1ccc(NC(=O)Nc2cccc(C(=N)N)c2)cc1)c1ccc(F)cc1` (stereo not shown) [Compound 48]: the IC50 fell in the range of 1000 to 10000 nM. Then `N=C(N)c1cccc(NC(=O)Nc2ccc(S(=O)(=O)NCc3cccc(OC(F)(F)F)c3)cc2)c1` [Compound 49], with 1000 to 10000 nM; and `N=C(N)c1ccc(NC(=O)Nc2ccc(S(=O)(=O)NCc3ccc(S(N)(=O)=O)cc3)cc2)cc1` [Compound 51, 4-{3-[4-(4-sulfamoylbenzylsulfamoyl)-phenyl]-ureido}-benzamidine], with < 1000 nM.

As for `N=C(N)c1ccc(NC(=O)Nc2ccc(S(=O)(=O)NCc3cccc(F)c3)cc2)cc1` [Compound 52], the IC50 is < 1000 nM.

As to `N=C(N)c1ccc(NC(=O)Nc2ccc(S(=O)(=O)NCc3ccc(F)cc3)cc2)cc1` [Compound 53], the half-inhibitory concentration (IC50) was < 1000 nM. `N=C(N)c1ccc(NC(=O)Nc2ccc(S(=O)(=O)NCc3c(F)cccc3F)cc2)cc1` [Compound 54]: the IC50 is < 1000 nM. As for `N=C(N)c1ccc(NC(=O)Nc2ccc(S(=O)(=O)NCc3ccc(F)cc3F)cc2)cc1` [Compound 55], the IC50 was < 1000 nM.

As for `N=C(N)c1ccc(NC(=O)Nc2ccc(S(=O)(=O)NCc3c(F)ccc(F)c3F)cc2)cc1` [Compound 56], the IC50 is < 1000 nM. Consider `N=C(N)c1cccc(NC(=O)Nc2cccc(S(=O)(=O)NCc3cccc(F)c3)c2)c1` [Compound 57], for which the IC50 was 1000 to 10000 nM. The result for `N=C(N)c1cccc(NC(=O)Nc2cccc(S(=O)(=O)NCc3ccc(S(N)(=O)=O)cc3)c2)c1` [Compound 58] reads 1000 to 10000 nM; that for `N=C(N)c1cccc(NC(=O)Nc2ccc(S(=O)(=O)NCc3ccc([N+](=O)[O-])cc3)cc2)c1` [Compound 59], < 1000 nM.
